In paper PMC7468108 (Communications Biology, 2020):

Columns and labels:
[1] = biological target: T1, Aβ42 (Homo sapiens, UniProt P05067); test: ThT-binding assay, inhibition of Aβ42 aggregation; assay type: biochemical; details: for % amyloid of Aβ42: Aβ42 10 µM; for Normalized ThT fluorescence: Aβ42:compound 1:5
T1 construct: purchased rPeptide (USA)
Description: ThT is known to intercalate within the amyloid fibrils resulting in fluorescence emission proportionate to the amyloid growth.
The resulting thin films were dissolved in PBS (100 mM, pH 7.4) and sonicated for 5 min to get a stock concentration of 50 µM, which immediately diluted to required concentration for an experiment. Stock solutions of ThT (4 mM in PBS) and hybrid molecules (10 mM in PBS) were prepared. All the stock solutions were diluted according to the requirement.
The experiment was performed according to the previous report. […] […] Excitation and emission wavelengths were set at 440 nm and 485 nm, respectively.

[2] = biological target: T2, pre-formed fibrils of hIAPP (Homo sapiens, UniProt P10997); test: ThT-binding assay, disaggregation of pre-formed hIAPP fibrils; assay type: biochemical; details: for % amyloid of hIAPP in absence or presence of inhibitors: hIAPP 10 µM; for Normalized ThT fluorescence kinetics: hIAPP (10 µM) : molecule 1:5
T2 construct: hIAPP is a 37-amino acid neuroendocrine peptide hormone; purchased Peptide 2.0 (USA)
T2 sequence (P10997 34-70 limits assumed): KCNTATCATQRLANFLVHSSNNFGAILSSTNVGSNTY
Description: For efficient treatment of proteinopathies it may be advantageous to disassemble amyloid aggregates/fibrils which are usually already present at the time of diagnosis[75]–[77]. […] Then, various doses of the hybrid molecules were added to the pre-formed fibrils and the mixtures were incubated for additional 10 h. The process of disaggregation was monitored by ThT-binding assay, CD spectroscopy, TEM and Congo red staining (Fig. 5).
The experiment was performed according to the previous report. […] Kinetics fluorescence data were collected at 37 °C in triplicate using Infinite M200 microplate reader (Tecan, Switzerland), with measurements acquired at 15 min intervals. Excitation and emission wavelengths were set at 440 nm and 485 nm, respectively.

T1 sequence (P05067 672-713 limits assumed): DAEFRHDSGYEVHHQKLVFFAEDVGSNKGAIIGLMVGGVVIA

NC(Cc1c[nH]c2ccccc12)C(=O)NC(Cc1c[nH]c2ccccc12)C(=O)O (stereo not shown) [WW]
inhibition of Aβ42 fibril formation (ThT), in words ([1]; any molar ratio (5:1, 1:1, 1:5)): no inhibition effect | % amyloid of Aβ42 ([1]; molar ratio Aβ42:tested molecule 1:1): 98.904% | % amyloid of Aβ42 ([1]; molar ratio Aβ42:tested molecule 1:5): 105.519% | % amyloid of Aβ42 ([1]; molar ratio Aβ42:tested molecule 5:1): 93.190% | Normalized ThT fluorescence ([1]; time 0.000 h): 100.247 | Normalized ThT fluorescence ([1]; time 0.167 h): 60.188 | Normalized ThT fluorescence ([1]; time 0.333 h): 57.612 | Normalized ThT fluorescence ([1]; time 0.500 h): 73.246 | Normalized ThT fluorescence ([1]; time 0.667 h): 91.915 | Normalized ThT fluorescence ([1]; time 0.833 h): 133.372 | Normalized ThT fluorescence ([1]; time 1.000 h): 185.130 | Normalized ThT fluorescence ([1]; time 1.167 h): 238.325 | Normalized ThT fluorescence ([1]; time 1.333 h): 306.731 | Normalized ThT fluorescence ([1]; time 1.500 h): 377.171 | Normalized ThT fluorescence ([1]; time 1.667 h): 441.860 | Normalized ThT fluorescence ([1]; time 1.833 h): 512.406 | Normalized ThT fluorescence ([1]; time 2.000 h): 563.139 | Normalized ThT fluorescence ([1]; time 2.167 h): 622.335 | Normalized ThT fluorescence ([1]; time 2.333 h): 703.467 | Normalized ThT fluorescence ([1]; time 2.500 h): 748.995 | Normalized ThT fluorescence ([1]; time 2.667 h): 831.052 | Normalized ThT fluorescence ([1]; time 2.833 h): 768.926 | Normalized ThT fluorescence ([1]; time 3.000 h): 842.887 | Normalized ThT fluorescence ([1]; time 3.167 h): 889.978 | Normalized ThT fluorescence ([1]; time 3.333 h): 935.606 | Normalized ThT fluorescence ([1]; time 3.500 h): 870.330 | Normalized ThT fluorescence ([1]; time 3.667 h): 968.307 | Normalized ThT fluorescence ([1]; time 3.833 h): 972.259 | Normalized ThT fluorescence ([1]; time 4.000 h): 873.484 | Normalized ThT fluorescence ([1]; time 4.167 h): 934.106 | Normalized ThT fluorescence ([1]; time 4.333 h): 1006.391 | Normalized ThT fluorescence ([1]; time 4.500 h): 929.674 | Normalized ThT fluorescence ([1]; time 4.667 h): 937.654 | Normalized ThT fluorescence ([1]; time 4.833 h): 1043.183 | Normalized ThT fluorescence ([1]; time 5.000 h): 1070.273 | Normalized ThT fluorescence ([1]; time 5.167 h): 1001.135 | Normalized ThT fluorescence ([1]; time 5.333 h): 988.346 | Normalized ThT fluorescence ([1]; time 5.500 h): 1039.570 | Normalized ThT fluorescence ([1]; time 5.667 h): 1028.736 | Normalized ThT fluorescence ([1]; time 5.833 h): 1034.411 | Normalized ThT fluorescence ([1]; time 6.000 h): 1074.727 | Normalized ThT fluorescence ([1]; time 6.167 h): 1044.333 | Normalized ThT fluorescence ([1]; time 6.333 h): 1117.377 | Normalized ThT fluorescence ([1]; time 6.500 h): 1116.291 | Normalized ThT fluorescence ([1]; time 6.667 h): 1054.239 | Normalized ThT fluorescence ([1]; time 6.833 h): 1138.465 | Normalized ThT fluorescence ([1]; time 7.000 h): 1115.829 | Normalized ThT fluorescence ([1]; time 7.167 h): 1058.156 | Normalized ThT fluorescence ([1]; time 7.333 h): 1094.730 | Normalized ThT fluorescence ([1]; time 7.500 h): 1092.412 | Normalized ThT fluorescence ([1]; time 7.667 h): 1062.031 | Normalized ThT fluorescence ([1]; time 7.833 h): 1136.103 | Normalized ThT fluorescence ([1]; time 8.000 h): 1128.627 | Normalized ThT fluorescence ([1]; time 8.167 h): 1116.746 | Normalized ThT fluorescence ([1]; time 8.333 h): 1080.689 | Normalized ThT fluorescence ([1]; time 8.500 h): 1146.007 | Normalized ThT fluorescence ([1]; time 8.667 h): 1085.963 | Normalized ThT fluorescence ([1]; time 8.833 h): 1146.093 | Normalized ThT fluorescence ([1]; time 9.000 h): 1168.158 | Normalized ThT fluorescence ([1]; time 9.167 h): 1195.194 | Normalized ThT fluorescence ([1]; time 9.333 h): 1188.939 | Normalized ThT fluorescence ([1]; time 9.500 h): 1216.176 | Normalized ThT fluorescence ([1]; time 9.667 h): 1201.344 | Normalized ThT fluorescence ([1]; time 9.833 h): 1137.291 | Normalized ThT fluorescence ([1]; time 10.000 h): 1184.898 | Normalized ThT fluorescence ([1]; time 10.167 h): 1153.959 | Normalized ThT fluorescence ([1]; time 10.333 h): 1205.518 | Normalized ThT fluorescence ([1]; time 10.500 h): 1174.187 | Normalized ThT fluorescence ([1]; time 10.667 h): 1185.205 | Normalized ThT fluorescence ([1]; time 10.833 h): 1189.623 | Normalized ThT fluorescence ([1]; time 11.000 h): 1150.543 | Normalized ThT fluorescence ([1]; time 11.167 h): 1169.609 | Normalized ThT fluorescence ([1]; time 11.333 h): 1161.417 | Normalized ThT fluorescence ([1]; time 11.500 h): 1208.267 | Normalized ThT fluorescence ([1]; time 11.667 h): 1187.121 | Normalized ThT fluorescence ([1]; time 11.833 h): 1199.506 | Normalized ThT fluorescence ([1]; time 12.000 h): 1229.396 | Normalized ThT fluorescence ([1]; time 12.167 h): 1189.375 | Normalized ThT fluorescence ([1]; time 12.333 h): 1145.079 | Normalized ThT fluorescence ([1]; time 12.500 h): 1220.539 | Normalized ThT fluorescence ([1]; time 12.667 h): 1203.612 | Normalized ThT fluorescence ([1]; time 12.833 h): 1183.933 | Normalized ThT fluorescence ([1]; time 13.167 h): 1197.309 | Normalized ThT fluorescence ([1]; time 13.333 h): 1166.138 | Normalized ThT fluorescence ([1]; time 13.500 h): 1200.493 | Normalized ThT fluorescence ([1]; time 13.667 h): 1198.718 | Normalized ThT fluorescence ([1]; time 13.833 h): 1242.576 | Normalized ThT fluorescence ([1]; time 14.000 h): 1232.657 | Normalized ThT fluorescence ([1]; time 14.167 h): 1186.307 | Normalized ThT fluorescence ([1]; time 14.333 h): 1161.142 | Normalized ThT fluorescence ([1]; time 14.500 h): 1146.151 | Normalized ThT fluorescence ([1]; time 14.667 h): 1198.390 | Normalized ThT fluorescence ([1]; time 14.833 h): 1196.409 | Normalized ThT fluorescence ([1]; time 15.000 h): 1194.696 | Normalized ThT fluorescence ([1]; time […]): 1190.377 | increase of ThT signal of pre-formed hIAPP fibrils ([2]; compound added to pre-formed fibrils): 20% | % amyloid of hIAPP in absence or presence of inhibitors ([2]; molar ratio hIAPP:tested molecule 1:1): 112.662% | % amyloid of hIAPP in absence or presence of inhibitors ([2]; molar ratio hIAPP:tested molecule 1:5): 117.610% | % amyloid of hIAPP in absence or presence of inhibitors ([2]; molar ratio hIAPP:tested molecule 5:1): 104.704% | Normalized ThT fluorescence kinetics ([2]; time 10.25 h): 100.289 | Normalized ThT fluorescence kinetics ([2]; time 10.5 h): 101.480 | Normalized ThT fluorescence kinetics ([2]; time 10.75 h): 103.392 | Normalized ThT fluorescence kinetics ([2]; time 11 h): 104.551 | Normalized ThT fluorescence kinetics ([2]; time 11.25 h): 105.696 | Normalized ThT fluorescence kinetics ([2]; time 11.5 h): 107.934 | Normalized ThT fluorescence kinetics ([2]; time 11.75 h): 110.096 | Normalized ThT fluorescence kinetics ([2]; time 12 h): 110.792 | Normalized ThT fluorescence kinetics ([2]; time 12.25 h): 111.709 | Normalized ThT fluorescence kinetics ([2]; time 12.5 h): 113.122 | Normalized ThT fluorescence kinetics ([2]; time 12.75 h): 114.844 | Normalized ThT fluorescence kinetics ([2]; time 13 h): 115.638 | Normalized ThT fluorescence kinetics ([2]; time 13.25 h): 116.172 | Normalized ThT fluorescence kinetics ([2]; time 13.5 h): 117.523 | Normalized ThT fluorescence kinetics ([2]; time 13.75 h): 117.888 | Normalized ThT fluorescence kinetics ([2]; time 14 h): 118.165 | Normalized ThT fluorescence kinetics ([2]; time 14.25 h): 118.126 | Normalized ThT fluorescence kinetics ([2]; time 14.5 h): 117.561 | Normalized ThT fluorescence kinetics ([2]; time 14.75 h): 117.932 | Normalized ThT fluorescence kinetics ([2]; time 15 h): 118.466 | Normalized ThT fluorescence kinetics ([2]; time 15.25 h): 118.713 | Normalized ThT fluorescence kinetics ([2]; time 15.5 h): 118.486 | Normalized ThT fluorescence kinetics ([2]; time 15.75 h): 118.695 | Normalized ThT fluorescence kinetics ([2]; time 16 h): 118.857 | Normalized ThT fluorescence kinetics ([2]; time 16.25 h): 118.835 | Normalized ThT fluorescence kinetics ([2]; time 16.5 h): 118.502 | Normalized ThT fluorescence kinetics ([2]; time 16.75 h): 118.398 | Normalized ThT fluorescence kinetics ([2]; time 17 h): 118.694 | Normalized ThT fluorescence kinetics ([2]; time 17.25 h): 118.398 | Normalized ThT fluorescence kinetics ([2]; time 17.5 h): 118.456 | Normalized ThT fluorescence kinetics ([2]; time 17.75 h): 118.427 | Normalized ThT fluorescence kinetics ([2]; time 18 h): 117.817 | Normalized ThT fluorescence kinetics ([2]; time 18.25 h): 117.835 | Normalized ThT fluorescence kinetics ([2]; time 18.5 h): 117.859 | Normalized ThT fluorescence kinetics ([2]; time 18.75 h): 117.995 | Normalized ThT fluorescence kinetics ([2]; time 19 h): 117.576 | Normalized ThT fluorescence kinetics ([2]; time 19.25 h): 117.741 | Normalized ThT fluorescence kinetics ([2]; time 19.5 h): 118.044 | Normalized ThT fluorescence kinetics ([2]; time 19.75 h): 117.625 | Normalized ThT fluorescence kinetics ([2]; time 20 h): 117.610
